Data on four compounds can be found in article PMC10510102, “Efficient Ligand Discovery Using Sulfur(VI) Fluoride Reactive Fragments” (ACS Chemical Biology, 2023).

Experiment [1] has as its target T1, BCL6 BTB/POZ domain (Homo sapiens, UniProt P41182, C67R/C84N/C8Q). In words: Conventional differential scanning fluorimetry (DSF). More on the design: hBCL6-Flag 3Cmut (5-129) produced in house; FLAG (C); made in house. The following applies: for Tm: 10 μM protein, covalent complex (500 μM SF, 6 or 24 h) or 200 μM GSK137, mean ± SD, three replicates; for ΔTm: relative to unmodified BCL6. The class given is binding. The protocol:
We subsequently analyzed protein-fragment interactions using differential scanning fluorimetry (DSF) to explore the impact of these binding events on protein stability.[45] […] […]; this illustrates the impact of covalent modification on protein–ligand binding. […]
8.2. Conventional differential scanning fluorimetry (DSF)
BCL6-SF covalent complex preparation:
SFs 2f–i, 2p, 2q, 2s, and 2t in DMSO-d 6 (200 mM stock) or pure DMSO-d 6 were added to crystallizable BCL6 BTB/POZ domain (10 µM) in 20 mM Tris pH 8.5 and 200 mM NaCl. The reactions were incubated at 20 °C for 6 h (meta-substituted benzamide fragments) or 24 h (azetidinyl/piperidinyl fragments). Final concentrations: 10 µM protein, 500 µM SF, DMSO 0.25% v/v in 200 µL. Unreacted compound and DMSO-d 6 were removed by buffer-exchanging protein solutions into 20 mM Tris pH 8.5, 200 mM NaCl and 5% v/v glycerol inside Vivaspin 500 PES Centrifugal Concentration units. The protein was concentrated to 0.6–1.3 mg/mL within the units, according to UV-vis absorption spectrophotometry via a Nanodrop ND-1000 instrument. Protein was flash frozen using a dry ice/ethanol bath prior to […]
Differential scanning fluorimetry assay:
GSK137 (40 mM stock) or pure DMSO-d 6 were added to crystallizable BCL6 BTB/POZ domain (11 µM) in 20 mM Tris pH 8.5, 200 mM NaCl and 5% v/v glycerol to give solutions containing: 11 µM protein, DMSO 0.63% v/v and 222 µM GSK137 (where applicable).
Concentrated protein-SF complexes were also thawed and diluted to 11 µM in 20 mM Tris pH 8.5, […] and 5% v/v glycerol.
SYPRO Orange dye (Invitrogen S6650) in extra dilution buffer (50×, eq. 1% v/v DMSO) was added to give assay-ready solutions with final concentrations: 10 µM protein, SYPRO 5×, DMSO 0.1% v/v in volume 80 µL for the protein-SF covalent complexes or 10 µM protein, SYPRO 5×, DMSO 0.6% v/v in volume 100 µL with and without 200 µM GSK137.
Each solution was aliquoted (3 × 20 µL) into wells of an opaque 384-well PCR microplate (Axygen PCR-384-LC480-W) and coated with silicone oil DC 200 (5 µL; Fluka Chemicals 85413). The microplate was centrifuged (1 min, 200 g) prior to insertion into a Fluodia T70 spectrophotometer (Photal Instruments). The fluorescence intensity was detected (emission wavelength: […]) as the plate instrument interior was heated from 27–75 °C using a temperature stepping mode (waiting time before measurement: 60 s; fluorescence measurement interval: 45 s). The approximate temperature gradient was 0.5 °C min-1.
The fluorescence intensity data from the individual replicates of each sample type were normalized and identically truncated within GraphPad Prism 5.0.4.11 These values were subsequently fitted to equation (4) corresponding to a Boltzmann sigmoid in order to obtain the melting temperature (“V50”; T m) of the protein:
Y=BOTTOM+((TOP+BOTTOM)/(1+exp((V50–X)/SLOPE))) (4)
The three obtained T m values were averaged to give a final T m value in each case. The normalized fluorescence data for the three replicates of each sample were averaged to yield a single dataset for each case, which were then plotted in GraphPad Prism 5.0.4 to give the plots shown in the manuscript.11
Table S9. Thermal melting temperatures of unmodified and covalently modified BCL6 BTB/POZ domain as determined by differential scanning fluorimetry measurements.
The arithmetic mean and standard deviation from three replicates are shown.
Hit Chemotype Protein Species Tm / °C ΔT m / °C […]
meta-Substituted Benzamide BCL6 + 2g 70.4 ± 0.3 +11.7
Azetidinyl Fragments BCL6 + 2h 55.5 ± 0.1 −3.2 […]
8.3. Protocol for kinetic analyzes (BCL6)
The (resynthesized and purified) SF hits (2f–i) were plated into seven Greiner 384 white low volume plate from a 10 mM source in DMSO. Differing volumes were added such that the final concentrations for each compound would be: 100, 50, 20, 10, or 5 µM after adding 15 µL of protein stock solution per well. […]
(In general: DSF heats the sample and reads unfolding from a dye or from intrinsic fluorescence.)

Experiment [2] concerns the target T1, BCL6 BTB/POZ domain. In words: Displacement study with GSK137, intact protein LC-MS. Further details: hBCL6-Flag-6H-Avi 3Cmut (5–129) produced as part of the GSK/GenScript collaboration; Flag (C); 6H (His6) (C); Avi (C). The following applies: for Modification (GSK137 treatment) / Modification (DMSO-d6 treatment): 1 μM protein, 50 μM SF, 20 °C, 24 h, average of duplicate; for Modification (GSK137 treatment): 50 μM GSK137; for Displacement Ratio: DModification/Modification(DMSO-d6 treatment); for Displacement: attenuation of covalent modification by GSK137; for DModification: difference DMSO-d6 vs GSK137 treatment. The class given is binding. The source says:
With additional hits identified from the iterative screen, we sought to obtain further structural and biophysical information to better understand how these reactive fragments bind to BCL6. A total of eight SF hits were resynthesized and purified: the four from the original screen (2f–i) and four from the iterative screen (2p, 2q, 2s, and 2t). […]
8. BCL6 – Further investigations into hits by structural and biophysical studies
8.1. Displacement study with GSK137
The (resynthesized and purified) SF hits (2f–i, 2p, 2q, 2s, and 2t) were plated into a Greiner 384 white low volume plate from a 10 mM source in DMSO, or DMSO-d 6 only as a control. GSK137 (11) was also added from a 10 mM source in DMSO. Purified BCL6 diluted from original stock into a buffer made up of HEPES (pH 7.5, 25 mM) and NaCl (50 mM) in distilled MS-grade water (15 µL per well) was subsequently added across the plate. Final concentrations: 1 µM protein; 50 µM SF; 50 µM GSK137. The plate was sealed, centrifuged (1 min, 1000 rpm), incubated at 20 °C for 24 h, and subsequently analyzed by intact protein LC-MS. This was performed in duplicate and average covalent modification yields were used for analysis.
Table S8. Quantitative output from intact LC-MS analysis of BCL6 BTB/POZ domain reacted with SFs after incubation of DMSO-d 6 or GSK137. Extent of displacement measured as (DModification/Modification(DMSO-d 6 treatment)). […]

In the case of `CN(C)C(=O)Nc1cccc(CNC(=O)Cc2ccc(S(=O)(=O)F)cc2)c1` [2f], at BCL6 BTB/POZ domain [1], the Tm (commonly the temperature at which the thermal transition is half complete) stood at 66.6 ± 0.3 °C and the ΔTm (usually the change in melting temperature against a reference sample) was “+7.9 °C”. Also, on BCL6 BTB/POZ domain [2], the “Modification (GSK137 treatment)” value worked out at 3.8%, the “Modification (DMSO-d6 treatment)” value amounted to 17.6%, the “Displacement Ratio” value is reported as 0.78 and the Displacement is reported as 78%. In addition, the DModification at BCL6 BTB/POZ domain [2] is given as 13.8%.

For `CC(=O)Nc1cccc(CNC(=O)Cc2ccc(S(=O)(=O)F)cc2)c1` [2g], on BCL6 BTB/POZ domain [1], the Tm turned out to be 70.4 ± 0.3 °C and the ΔTm result was “+11.7 °C”. Besides, on BCL6 BTB/POZ domain [2], the “Modification (GSK137 treatment)” value came out at 4.8%, the “Modification (DMSO-d6 treatment)” value was 25.0%, the “Displacement Ratio” value was 0.81 and the Displacement is 81%. Moreover, at BCL6 BTB/POZ domain [2], the DModification was found to be 20.2%.

Consider `O=C(Cc1ccc(S(=O)(=O)F)cc1)N1CC(Oc2ccc(F)c(F)c2)C1` [2h], for which, at BCL6 BTB/POZ domain [1], the Tm came out at 55.5 ± 0.1 °C and the ΔTm was −3.2 °C. On BCL6 BTB/POZ domain [2], the “Modification (GSK137 treatment)” value was determined as 1.6%, the “Modification (DMSO-d6 treatment)” value is given as 10.3%, the “Displacement Ratio” value is reported as 0.84 and the Displacement is given as 84%. In addition, the DModification at BCL6 BTB/POZ domain [2] is 8.7%.

Regarding `NC(=O)c1ccccc1OC1CN(C(=O)Cc2ccc(S(=O)(=O)F)cc2)C1` [2i], at BCL6 BTB/POZ domain [1], the Tm was found to be 59.9 ± 0.4 °C and the ΔTm entry is “+1.2 °C”. For the same compound, at BCL6 BTB/POZ domain [2], the “Modification (GSK137 treatment)” value worked out at 1.6%, the “Modification (DMSO-d6 treatment)” value is 19.7%, the “Displacement Ratio” value is listed as 0.92 and the Displacement turned out to be 92%. Besides, the DModification on BCL6 BTB/POZ domain [2] is on record as 18.1%.
